Assay results reported in patent publication US11439707B2, “Hypocrellin derivative substituted both in a peri-position and in 2-position by amino, preparation method, and application thereof” (priority 2017, dated 2022).

Columns and labels:
[1] = absorption spectrum (maximum absorption wavelength, molar extinction coefficient); type: physicochemical
[2] = singlet oxygen efficiency test, reference rose bengal; type: physicochemical

SMILES | maximum absorption wavelength [1] [nm] | molar extinction coefficient [1] | singlet oxygen yield [2] [%]
COCCOCCOCCOCCOCCOCCOCCOCCOC(=O)C1CCC(CNc2c3c4c5c(c(OC)c(=O)c6c(O)cc(OC)c(c7c(OC)cc(NCC8CCC(C(=O)OCCOCCOCCOCCOCCOCCOCCOCCOC)CC8)c(c2=O)c74)c65)CC(C)=C3)CC1 (stereo not drawn) [HC-13c-PEG8] | 628 | 32,500 M^−1cm^−1 | 38
COc1c(NCCS(=O)(=O)OC)c2c(=O)cc(OC)c3c4c(OC)cc(=O)c5c(O)c(NCCS(=O)(=O)OC)c6c(c(c1C(C(C)=O)C(C)=C6)c23)c54 (stereo not drawn) [HB-12b] | 621 | 22,500 M^−1cm^−1 | 22
COc1c2c3c4c(c(NCCNCCOCCO)c(=O)c5c(O)c(Br)c(OC)c(c6c(OC)cc(NCCNCCOCCO)c(c1=O)c63)c54)C=C(C)C2C(C)=O (stereo not drawn) [HB-5d-Br-PEG1] | 624 | 29,500 M^−1cm^−1 | 32
COc1c(O)c2c(=O)cc(OC)c3c4c(OC)cc(=O)c5c(NC6CCC(C(=O)O)CC6)c(NC6CCC(C(=O)O)CC6)c6c(c(c1C(C(C)=O)C(C)=C6)c23)c54 (stereo not drawn) [HB-14a] | 625 | 27,000 M^−1cm^−1 | 25
COCCOCCOCCOCCOCCOCCOCCOCCOCCOCCOCCOCCOCCC(=O)OCCNc1c2c3c4c(c(OC)c(=O)c5c(O)cc(OC)c(c6c(OC)cc(NCCOC(=O)CCOCCOCCOCCOCCOCCOCCOCCOCCOCCOCCOCCOCCOC)c(c1=O)c63)c54)CC(C)=C2 [HC-2c-PEG12] | 630 | 32,500 M^−1cm^−1 | 34
COc1c(NCCOCCO)c2c(=O)cc(OC)c3c4c(OC)cc(=O)c5c(O)c(NCCOCCO)c6c(c(c1CC(C)=C6)c23)c54 [HC-1b] | 624 | 27,000 M^−1cm^−1 | 33
COc1c2c3c4c(c(NCCO)c(=O)c5c(O)cc(OC)c(c6c(OC)cc(NCCO)c(c1=O)c63)c54)C=C(C)C2 [HC-2d] | 625 | 28,500 M^−1cm^−1 | 34
COCCOCCOCCOCCOCCOCCOCCOCCOCCOCCOCCOCCOCCC(=O)OCCNc1c2c3c4c(c(OC)c(=O)c5c(O)cc(OC)c(c6c(OC)cc(NCCOC(=O)CCOCCOCCOCCOCCOCCOCCOCCOCCOCCOCCOCCOCCOC)c(c1=O)c63)c54)C(C(C)=O)C(C)=C2 (stereo not drawn) [HB-2c-PEG12] | 626 | 32,500 M^−1cm^−1 | 36
COCCOCCOCCOCCOCCOCCOC(=O)C1CCCCC1Nc1c2c3c4c(c(OC)c(=O)c5c(NC6CCCCC6C(=O)OCCOCCOCCOCCOCCOCCOC)cc(OC)c(c6c(OC)cc(O)c(c1=O)c63)c54)C(C(C)=O)C(C)=C2 (stereo not drawn) [HB-16d-PEG6] | 628 | 32,000 M^−1cm^−1 | 33
COCCOCCOCCOCCOCCOCCOC(=O)C1CCCC(Nc2c3c4c5c(c(OC)c(=O)c6c(NC7CCCC(C(=O)OCCOCCOCCOCCOCCOCCOC)C7)cc(OC)c(c7c(OC)cc(O)c(c2=O)c74)c65)C(C(C)=O)C(C)=C3)C1 (stereo not drawn) [HB-15d-PEG6] | 630 | 32,500 M^−1cm^−1 | 32
COc1c(NCCCC(=O)O)c2c(=O)cc(OC)c3c4c(OC)cc(=O)c5c(O)c(NCCCC(=O)O)c6c(c(c1C(C(C)=O)C(C)=C6)c23)c54 (stereo not drawn) [HB-8b] | 618 | 28,500 M^−1cm^−1 | 26
COc1c2c3c4c(c(NCCCS(=O)(=O)O)c(=O)c5c(O)cc(OC)c(c6c(OC)cc(NCS(=O)(=O)O)c(c1=O)c63)c54)C=C(C)C2 [HC-45d] | 624 | 21,000 M^−1cm^−1 | 21
COc1c(O)c2c(=O)cc(OC)c3c4c(OC)cc(=O)c5c(NCC6CCC(C(=O)OCC[N+](C)(C)C)CC6)c(NCC6CCC(C(=O)OCC[N+](C)(C)C)CC6)c6c(c(c1CC(C)=C6)c23)c54 (stereo not drawn) [HC-13a-C2-N^+] | 622 | 30,500 M^−1cm^−1 | 30
COc1c(NCCCC(=O)OCCCC[N+](C)(C)C)c2c(=O)cc(OC)c3c4c(OC)cc(=O)c5c(O)c(NCCCC(=O)OCCCC[N+](C)(C)C)c6c(c(c1CC(C)=C6)c23)c54 [HC-8b-C4-N^+] | 625 | 31,000 M^−1cm^−1 | 32
COc1c2c3c4c(c(NCCCCCCS(=O)(=O)O)c(=O)c5c(NCCCCCCS(=O)(=O)O)cc(OC)c(c6c(OC)cc(O)c(c1=O)c63)c54)C=C(C)C2C(C)=O (stereo not drawn) [HB-11c-C6-SO3H] | 626 | 31,500 M^−1cm^−1 | 38
CCCNc1c2c3c4c(c(OC)c(=O)c5c(O)cc(OC)c(c6c(OC)cc(NCCC)c(c1=O)c63)c54)C(C(C)=O)C(C)=C2 (stereo not drawn) [HB-33c] | 618 | 34,500 M^−1cm^−1 | 35

SMILES | maximum absorption wavelength [1] [nm] | molar extinction coefficient [1] | singlet oxygen yield [2] [%]
COc1c(NCC2CCC(C(=O)NCCCCS(=O)(=O)O)CC2)c2c(=O)cc(OC)c3c4c(OC)cc(=O)c5c(O)c(NCC6CCC(C(=O)NCCCCS(=O)(=O)O)CC6)c6c(c(c1CC(C)=C6)c23)c54 (stereo not drawn) [HC-13b-C4-SO3H] | 622 | 30,000 M^−1cm^−1 | 32
COc1c(O)c2c(=O)cc(OC)c3c4c(OC)cc(=O)c5c(NC6CCCCC6C(=O)O)c(NC6CCCCC6C(=O)O)c6c(c(c1C(C(C)=O)C(C)=C6)c23)c54 (stereo not drawn) [HB-16a] | 620 | 25,500 M^−1cm^−1 | 25
COc1c(NCC2CCC(C(=O)OCCCC[N+](C)(C)C)CC2)c2c(=O)cc(OC)c3c4c(OC)cc(=O)c5c(O)c(NCC6CCC(C(=O)OCCCC[N+](C)(C)C)CC6)c6c(c(c1CC(C)=C6)c23)c54 (stereo not drawn) [HC-13b-C4-N^+] | 624 | 31,500 M^−1cm^−1 | 36
COc1c2c3c4c(c(NO)c(=O)c5c(O)cc(OC)c(c6c(OC)cc(NO)c(c1=O)c63)c54)C=C(C)C2 [HC-37d] | 620 | 32,000 M^−1cm^−1 | 33
COc1c2c3c4c(c(NC5CCC(C(=O)O)C5)c(=O)c5c(NC6CCC(C(=O)O)C6)cc(OC)c(c6c(OC)cc(O)c(c1=O)c63)c54)C=C(C)C2C(C)=O (stereo not drawn) [HB-19c] | 622 | 25,500 M^−1cm^−1 | 24
COCCOC(=O)C1CCCC(Nc2c(NC3CCCC(C(=O)OCCOC)C3)c3c(=O)cc(OC)c4c5c(OC)cc(=O)c6c(O)c(OC)c7c(c(c2C=C(C)C7C(C)=O)c34)c65)C1 (stereo not drawn) [HB-15a-PEG1] | 624 | 30,000 M^−1cm^−1 | 30
COC(=O)C1CCC(CNc2c(NCC3CCC(C(=O)OC)CC3)c3c(=O)cc(OC)c4c5c(OC)cc(=O)c6c(O)c(OC)c7c(c(c2C=C(C)C7C(C)=O)c34)c65)CC1 (stereo not drawn) [HB-13a-AcE] | 625 | 27,000 M^−1cm^−1 | 25
COCCOCCOCCOCCOCCOCCOCCOCCOCCOCCOCCOCCOC(=O)CCCNc1c2c3c4c(c(OC)c(=O)c5c(O)cc(OC)c(c6c(OC)cc(NCCCC(=O)OCCOCCOCCOCCOCCOCCOCCOCCOCCOCCOCCOCCOC)c(c1=O)c63)c54)C(C(C)=O)C(C)=C2 (stereo not drawn) [HB-8c-PEG12] | 628 | 33,000 M^−1cm^−1 | 36
COc1c2c3c4c(c(NCC(=O)O)c(=O)c5c(O)cc(OC)c(c6c(OC)cc(NCCCC(=O)O)c(c1=O)c63)c54)C=C(C)C2C(C)=O (stereo not drawn) [HB-43d] | 623 | 26,500 M^−1cm^−1 | 24
COCCOCCOCCOCCOCCOCCOCCOCCOCCOCCOCCOCCOCCC(=O)OC1CCC(Nc2c3c4c5c(c(OC)c(=O)c6c(O)cc(OC)c(c7c(OC)cc(NC8CCC(OC(=O)CCOCCOCCOCCOCCOCCOCCOCCOCCOCCOCCOCCOCCOC)CC8)c(c2=O)c74)c65)C(C(C)=O)C(C)=C3)CC1 (stereo not drawn) [HB-17c-PEG12] | 632 | 33,500 M^−1cm^−1 | 38
COc1c2c3c4c(c(NC(CCC(=O)O)C(=O)O)c(=O)c5c(NC(CCC(=O)O)C(=O)O)cc(OC)c(c6c(OC)cc(O)c(c1=O)c63)c54)C=C(C)C2C(C)=O (stereo not drawn) [HB-28c] | 625 | 21,500 M^−1cm^−1 | 22
COCCOCCNC(=O)CCNc1c(NCCC(=O)NCCOCCOC)c2c(=O)cc(OC)c3c4c(OC)cc(=O)c5c(O)c(OC)c6c(c(c1C=C(C)C6C(C)=O)c23)c54 (stereo not drawn) [HB-10a-NH-PEG1] | 621 | 31,500 M^−1cm^−1 | 30
COCCOCCOCCOCCOCCOCCOC(=O)CCCNc1c(O)c2c(=O)cc(OC)c3c4c(OC)cc(=O)c5c(NCCCC(=O)OCCOCCOCCOCCOCCOCCOC)c(OC)c6c(c(c1C=C(C)C6C(C)=O)c23)c54 (stereo not drawn) [HB-8b-PEG6] | 622 | 30,000 M^−1cm^−1 | 30
COc1c2c3c4c(c(NCCOCCO)c(=O)c5c(O)cc(OC)c(c6c(OC)cc(NCCOCCO)c(c1=O)c63)c54)C=C(C)C2C(C)=O (stereo not drawn) [HB-1d] | 622 | 30,000 M^−1cm^−1 | 35
COCCOCCOCCOCCOCCOCCOCCN1C(=O)CN(C(=O)OCCNc2c(O)c3c(=O)cc(OC)c4c5c(OC)cc(=O)c6c(NCCOC(=O)N7CC(=O)N(CCOCCOCCOCCOCCOCCOCCOC)C(=O)C7)c(OC)c7c(c(c2C=C(C)C7C(C)=O)c34)c65)CC1=O (stereo not drawn) [HB-40b-PEG6] | 624 | 31,000 M^−1cm^−1 | 34
COCCOCCOCCOCCOCCOCCOC(=O)C1CCCCC1Nc1c(O)c2c(=O)cc(OC)c3c4c(OC)cc(=O)c5c(NC6CCCCC6C(=O)OCCOCCOCCOCCOCCOCCOC)c(OC)c6c(c(c1C=C(C)C6C(C)=O)c23)c54 (stereo not drawn) [HB-16b-PEG6] | 624 | 30,500 M^−1cm^−1 | 32
